In patent publication US9834525B2, “Inhibitors of paxillin function and related compositions and methods” (UNIVERSITY OF TENNESSEE RESEARCH FOUNDATION, priority 2015, dated 2017):
“Also recorded” adds a separate entry of the source.

Legend:
[1] = tested on: paxillin (pY118); experiment: Western blot of VEGF-induced paxillin Y118 phosphorylation in REC; assay type: cell-based, human
Description: REC, Mel 270, OMM 2.5 under Hepatocyte Growth Factor (HGF) or Vascular Endothelial Growth Factor (VEGF) stimulation conditions: Cell lysates were collected in RIPA lysis buffer (50 mM Tris-HCl, pH 7.4, 150 mM NaCl, 2 mM EDTA, 1% Nonidet P-40, 0.1% SDS) with protease 1× inhibitor cocktail (Roche; Indianapolis, Ind.). Lysates were kept on ice and centrifuged at 10,000×g×10 minutes and total protein was measured using the BCA assay (Pierce, Rockford, Ill.). Protein samples were mixed with 4×LDS loading buffer with 2.5% 2-mercaptoethanol (Sigma-Aldrich), heated to 70° C. for 10 minutes, and loaded on NuPAGE 4-12% Bis-Tris gel (Invitrogen, Carlsbad, Calif.). Immunoblotting was performed with nitrocellulose membranes (Bio-Rad, Hercules, Calif.) at 170-mA start and 110-mA end at 25 V for two hours in NuPAGE transfer buffer (Invitrogen) containing 20% methanol. Membranes were blocked using Odyssey blocking buffer (LI-COR; Lincoln, Nebr.) for one hour at room temperature with gentle shaking Membranes were then incubated at 4° C. with specific primary antibodies (1:1000) overnight. Cellular protein was normalized using rabbit-GAPDH or mouse-α-Tubulin [1:20,000] (Cell Signaling, Danvers, Mass.; LI-COR, respectively). Secondary antibodies (IRDye 800CW goat anti-rabbit and IRDye 680LT goat anti-mouse) [1:10,000] were incubated in the dark at room temperature for 45 minutes. Dual-channel infrared scan and quantitation of immunoblots were conducted using the ODYSSEY Sa infrared imaging system with Image Studio (Ver. 3.1.4) (LI-COR).
The α4 subunit of the cytoplasmic tail of VLA-4 interacts with the cytoskeletal adaptor paxillin, merging intracellular signaling events that drive cellular proliferation and migration (FIG. 13). Compound (II-4) inhibits phosphorylation of paxillin at Y118 (pY118) in the LD-region that interacts with the α4 subunit of VLA-4. To confirm the inhibition of pY118 of paxillin after use of compound (II-4) retinal endothelial cells (REC) were activated with Vascular Endothelial Growth Factor (VEGF) at 50 ng/mL in the presence or absence (vehicle) of compound (II-4) at a concentration of […] for 4-hrs. […] VEGF-induced pY118 was prevented by treatment with compound (II-4) [VEGF-REC treatment versus untreated, *p<0.005; VEGF-induced versus compound (II-4) treatment, **p<0.05—FIG. 13C].
To gain insight into the mechanistic basis for this phenotype, the effect of compound (II-4) on the Src/FAK/paxillin/ERK signalsome in RECs under VEGF was examined. […] Next, characterization of the potential of compound (II-4) to affect FA disassembly through inactivation of ERK was explored. […]
FIG. 13: Targeting the alpha-4 subunit of VLA-4 signaling through inhibition of paxillin. […] Phosphorylation measured by Western Blot. […]

[2] = tested on: metastatic-UM cell; experiment: CFSE cellular proliferation, metastatic UM; assay type: cell-based, human; details: metastatic-UM cells; 96 hrs culture, 1 μM for the last 24 hrs
Description: Harvested cells were resuspended at a concentration of 1.0×10^6 cells/mL in warm PBS/1% FBS. Cells were labeled with […] (Invitrogen) for 5 minutes at 37° C. then quenched on cold growth media (final volume 20 mL) for 10 minutes, twice. Cultured unlabeled cells were used as controls.
To test the hypothesis that inhibition of paxillin will reduce cellular proliferation UM cell lines were labeled with carboxyfluorescein succunimidyl ester (CFSE), a cell tracking dye, and cultured for 96 hrs. A group of cells received treatment with compound (II-4) for the last 24 hours. Maximum CFSE fluorescence was controlled using labeled cells prior culture −0 hr. Negative control was established using unlabeled cells cultured in parallel. Histograms in FIG. 15D show 96 hrs cultured cells divided with a 1-log shift or reduction in CFSE intensity. […] Cell proliferation was not affected in the 92.1 cell line. […]
FIG. 15: The paxillin inhibitor Compound (II-4) selectively affects cellular proliferation of primary UM cells that become metastatic. […] Unlabeled cells were used to control fluorescence. […] B. Quantitation of experiment +/−SD including primary UM that becomes metastatic (Mel 270), metastatic (OMM 2.1) and primary (92.1) UM cells. *P=0.0007 and **P=0.0005. […] Quantitation of VLA-4 protein levels +/−SD from n=3. […]

**Q.** What does the source list for `COc1cc(C2OC(=O)Nc3c2ccc2ccccc32)cc(OC)c1OC` (stereo not drawn) [compound II-4]?
**A.** VEGF-induced PaxY118 phosphorylation (FIG. 20) ([1]; REC under VEGF, compound (II-4) 500 nM, SU6656 1 μM): able to inhibit; also recorded: reduced; VEGF-induced paxillin phosphorylation (pY118) ([1]; REC, VEGF 50 ng/mL, 4 hrs, inhibitor 1 μM (printed 104)): prevented; also recorded: reduced; cell proliferation (CFSE) [2]: reduction was not observed
